Key:
[1] = test system: HSPA1B (heat shock protein family A member 1B); experiment: RNA microarray, HSPA1B expression in PBMCs (MHC-I pathway); assay type: cell-based, human; conditions: final concentration of 5%, 24 hours, compared to control group
Experimental: (§1) PBMCs are immunocytes present in the peripheral blood. In these preparation examples, PBMCs were isolated from the peripheral blood obtained from healthy donors.
(§2) B. Treatments Applied to PBMCs • (b1) 1 mL X-VIVO 10 medium was added into each well of a 24-well plate, and then PBMCs obtained from step A were seeded into the medium with a density of 1×10^6 to 2×10^6/well; and • (b2) PBMCs obtained from step b1 were separated into two groups for the following treatments: • Control group: the PBMCs-containing medium was directly incubated in a 37° C. constant temperature incubator with 5% CO2 (i.e., PBMCs were cultured in a medium that was free of the compound of formula (I)) for 24 hours; • Experimental group: the compound of formula (I) was added to the PBMCs-containing medium until a final concentration of 5%, and then the medium was incubated in a 37° C. constant temperature incubator with 5% CO2 for 24 hours. […]
(§3) To know whether the compound of formula (I) can promote the activation of the MHC-I pathway, after determining mRNA expression levels via the above Preparation example C, the expression levels of genes relating to MHC-I pathway (including CTSL, HSPA1B, and HSPA2) of the control and experimental group were recorded respectively. […]

[2] = test system: KLRG1 (killer cell lectin-like receptor subfamily G, member 1); experiment: RNA microarray, KLRG1 expression in PBMCs (aging genes); assay type: cell-based, human; conditions: final concentration of 5%, 24 hours, normalized to control group
Experimental: as §1, §2
(§4) To know whether the compound of formula (I) can delay the aging of immunocytes, after determining mRNA expression levels via the above Preparation example C, the expression levels of genes representing the old stage of immunocytes (including CD244, ITGA4, and KLRG1) of the control and experimental group were recorded respectively. […]

[3] = test system: HLA-DPB1; experiment: RNA microarray, HLA-DPB1 expression in PBMCs (MHC-II pathway); assay type: cell-based, human; conditions: final concentration of 5%, 24 hours, normalized to control group
Experimental: as §1, §2
(§5) To know whether the compound of formula (I) can inhibit the activation of the MHC-II pathway, after determining mRNA expression levels via the above Preparation example C, the expression levels of genes relating to MHC-II pathway (including CD4, CD74, CIITA, HLA-DMB, HLA-DPA1, HLA-DPB1, HLA-DQB1, HLA-DRA, and LGMN) of the control and experimental group were recorded respectively. […]

[4] = test system: FOXO3 (forkhead box O3); experiment: RNA microarray, FOXO3 expression in PBMCs (genes delaying aging of immunocytes); assay type: cell-based, human; conditions: final concentration of 5%, 24 hours, compared to control group
Experimental: as §1, §2
(§6) To know whether the compound of formula (I) can delay the aging of immunocytes, after determining mRNA expression levels via the above Preparation example C, the expression levels of genes helpful for delaying the aging of immunocytes (including FOXO3, SOD2, and TNFRSF14) of the control and experimental group were recorded respectively. […]

[5] = test system: HLA-DPA1; experiment: RNA microarray, HLA-DPA1 expression in PBMCs (MHC-II pathway); assay type: cell-based, human; conditions: final concentration of 5%, 24 hours, normalized to control group
Experimental: as §1, §2, §5

[6] = test system: ITGA4 (integrin subunit alpha 4); experiment: RNA microarray, ITGA4 expression in PBMCs (aging genes); assay type: cell-based, human; conditions: final concentration of 5%, 24 hours, normalized to control group
Experimental: as §1, §2, §4

[7] = test system: TNF-α (tumor necrosis factor alpha); experiment: RNA microarray, TNF-α expression in PBMCs (macrophage activation); assay type: cell-based, human; conditions: final concentration of 5%, 24 hours, compared to control group
Experimental: as §1, §2
(§7) To know whether the compound of formula (I) can promote the activation of macrophages, after determining mRNA expression levels via the above Preparation example C, the expression levels of genes relating to macrophage activation (including IL-1B and TNF-α) of the control and experimental group were recorded respectively. […]

[8] = test system: CTSL (Cathepsin L); experiment: RNA microarray, CTSL expression in PBMCs (MHC-I pathway); assay type: cell-based, human; conditions: final concentration of 5%, 24 hours, normalized to control group
Experimental: as §1, §2, §3

[9] = test system: CIITA (Class II Major Histocompatibility Complex Transactivator); experiment: RNA microarray, CIITA expression in PBMCs (MHC-II pathway); assay type: cell-based, human; conditions: final concentration of 5%, 24 hours, normalized to control group
Experimental: as §1, §2, §5

[10] = test system: HSPA2 (Heat Shock Protein Family A Member 2); experiment: RNA microarray, HSPA2 expression in PBMCs (MHC-I pathway); assay type: cell-based, human; conditions: final concentration of 5%, 24 hours, normalized to control group
Experimental: as §1, §2, §3

[11] = test system: CD244 (Cluster of Differentiation 244); experiment: RNA microarray, CD244 expression in PBMCs (aging genes); assay type: cell-based, human; conditions: final concentration of 5%, 24 hours, normalized to control group
Experimental: as §1, §2, §4

[12] = test system: SOD2 (Superoxide dismutase 2); experiment: RNA microarray, SOD2 expression in PBMCs (genes delaying aging of immunocytes); assay type: cell-based, human; conditions: final concentration of 5%, 24 hours, normalized to control group
Experimental: as §1, §2, §6

[13] = test system: LGMN (legumain); experiment: RNA microarray, LGMN expression in PBMCs (MHC-II pathway); assay type: cell-based, human; conditions: final concentration of 5%, 24 hours, normalized to control group
Experimental: as §1, §2, §5

[14] = test system: HLA-DRA; experiment: RNA microarray, HLA-DRA expression in PBMCs (MHC-II pathway); assay type: cell-based, human; conditions: final concentration of 5%, 24 hours, normalized to control group
Experimental: as §1, §2, §5

[15] = test system: TNFRSF14 (TNF superfamily, member 14); experiment: RNA microarray, TNFRSF14 expression in PBMCs (genes delaying aging of immunocytes); assay type: cell-based, human; conditions: final concentration of 5%, 24 hours, compared to control group
Experimental: as §1, §2, §6

[16] = test system: CD74 (Cluster of Differentiation 74); experiment: RNA microarray, CD74 expression in PBMCs (MHC-II pathway); assay type: cell-based, human; conditions: final concentration of 5%, 24 hours, normalized to control group
Experimental: as §1, §2, §5

[17] = test system: IL-1B (interleukin 1 beta); experiment: RNA microarray, IL-1B expression in PBMCs (macrophage activation); assay type: cell-based, human; conditions: final concentration of 5%, 24 hours, normalized to control group
Experimental: as §1, §2, §7

[18] = test system: HLA-DMB (human leukocyte antigen-DMB); experiment: RNA microarray, HLA-DMB expression in PBMCs (MHC-II pathway); assay type: cell-based; conditions: final concentration of 5%, 24 hours, normalized to control group
Experimental: as §1, §2, §5

[19] = test system: CD4 (Cluster of Differentiation 4); experiment: RNA microarray, CD4 expression in PBMCs (MHC-II pathway); assay type: cell-based, human; conditions: final concentration of 5%, 24 hours, normalized to control group
Experimental: as §1, §2, §5

[20] = test system: HLA-DQB1; experiment: RNA microarray, HLA-DQB1 expression in PBMCs (MHC-II pathway); assay type: cell-based, human; conditions: final concentration of 5%, 24 hours, normalized to control group
Experimental: as §1, §2, §5

For `C=C1CC[C@@H](C)C2C[C@@H](O)[C@@H](C(C)C(=O)O)CC12` (some centres unmarked) [compound of formula (I)], which “expression level of HSPA1B” value [1] is on record?
The value was “significantly increased”.

What about the “expression level of KLRG1” value [2] of the same molecule?
The value was 0.25 times the level of the control group.

And the “expression level of HLA-DPB1” value [3]?
The value was 0.23 times the level of the control group.

What about the “expression level of FOXO3” value [4] of the same molecule?
Its value is “significantly increased”.

What about the “expression level of HLA-DPA1” value [5] of the same molecule?
The value was 0.23 times the level of the control group.

And the “expression level of ITGA4” value [6]?
Its value is 0.24 times the level of the control group.

And the “expression level of TNF-α” value [7]?
The value was “significantly increased”.

What about the “expression level of CTSL” value [8] of the same molecule?
Its value is 3.13 times the level of the control group.

And the “expression level of CIITA” value [9]?
The value was 0.40 times the level of the control group.

What about the “expression level of HSPA2” value [10] of the same molecule?
The value was 4.61 times the level of the control group.

And the “expression level of CD244” value [11]?
Its value is 0.14 times the level of the control group.

What about the “expression level of SOD2” value [12] of the same molecule?
The value was 6.06 times the level of the control group.

And the “expression level of LGMN” value [13]?
The value was 0.32 times the level of the control group.

What about the “expression level of HLA-DRA” value [14] of the same molecule?
Its value is 0.36 times the level of the control group.

And the “expression level of TNFRSF14” value [15]?
Its value is “significantly increased”.

What about the “expression level of CD74” value [16] of the same molecule?
The value was 0.18 times the level of the control group.

What about the “expression level of IL-1B” value [17] of the same molecule?
Its value is 16.32 times the level of the control group.

And the “expression level of HLA-DMB” value [18]?
Its value is 0.31 times the level of the control group.

And the “expression level of CD4” value [19]?
Its value is 0.47 times the level of the control group.

And the “expression level of HLA-DQB1” value [20]?
The value was 0.14 times the level of the control group.
